Measured values reported in publication PMC6591251, “Discovery of potent necroptosis inhibitors targeting RIPK1 kinase activity for the treatment of inflammatory disorder and cancer metastasis” (Cell Death & Disease, 2019).

Legend:
Experiment in all cases: RBC kinase panel
Assay type in all cases: biochemical
Conditions in all cases: ATP 10 μM, Data1, Data2
ABL1 = target: T1, ABL1 (Homo sapiens, UniProt P00519)
T1 construct: purchased Reaction Biology Corporation
Description: (§1) PK68 was tested at 1 μM in duplicate against a panel of 369 human kinases at Reaction Biology Corporation. Results are viewed in the human kinome phylogenetic tree.
(§2) ^a Compound PK68 was tested at 1 μM in duplicate against 369 kinases using the RBC kinase panel service of Reaction Biology Corporation. All the ATP concentrations used were 10 μM. […] Full protocol details are available at http://www.reactionbiology.com.

Aurora A = target: T2, Aurora A (Homo sapiens, UniProt O14965)
T2 construct: purchased Reaction Biology Corporation
Description: as §1, §2

CDK1/cyclin B = target: T3, CDK1/cyclin B (Homo sapiens, UniProt P06493)
T3 construct: purchased Reaction Biology Corporation
Description: as §1, §2

CDK2/Cyclin A1 = target: T4, CDK2/Cyclin A1 (Homo sapiens, UniProt P24941)
T4 construct: purchased Reaction Biology Corporation
Description: as §1, §2

CDK9/cyclin T1 = target: T5, CDK9/cyclin T1 (Homo sapiens, UniProt P50750)
T5 construct: purchased Reaction Biology Corporation
Description: as §1, §2

CDK9/cyclin T2 = target: T6, CDK9/cyclin T2 (Homo sapiens, UniProt P50750)
T6 construct: purchased Reaction Biology Corporation
Description: as §1, §2

ERK7/MAPK15 = target: T7, ERK7/MAPK15 (Homo sapiens, UniProt Q8TD08)
T7 construct: purchased Reaction Biology Corporation
Description: as §1, §2

GRK7 = target: T8, GRK7 (Homo sapiens, UniProt Q8WTQ7)
T8 construct: purchased Reaction Biology Corporation
Description: as §1, §2

GSK3b = target: T9, GSK3b (Homo sapiens, UniProt P49841)
T9 construct: purchased Reaction Biology Corporation
Description: as §1, §2

Haspin = target: T10, Haspin (Homo sapiens, UniProt Q8TF76)
T10 construct: purchased Reaction Biology Corporation
Description: as §1, §2

JAK2 = target: T11, JAK2 (Homo sapiens, UniProt O60674)
T11 construct: purchased Reaction Biology Corporation
Description: as §1, §2

JNK3 = target: T12, JNK3 (Homo sapiens, UniProt P53779)
T12 construct: purchased Reaction Biology Corporation
Description: as §1, §2

KHS/MAP4K5 = target: T13, KHS/MAP4K5 (Homo sapiens, UniProt Q9Y4K4)
T13 construct: purchased Reaction Biology Corporation
Description: as §1, §2

LATS1 = target: T14, LATS1 (Homo sapiens, UniProt O95835)
T14 construct: purchased Reaction Biology Corporation
Description: as §1, §2

LYN = target: T15, LYN (Homo sapiens, UniProt P07948)
T15 construct: purchased Reaction Biology Corporation
Description: as §1, §2

MAPKAPK2 = target: T16, MAPKAPK2 (Homo sapiens, UniProt P49137)
T16 construct: purchased Reaction Biology Corporation
Description: as §1, §2

MEKK1 = target: T17, MEKK1 (Homo sapiens, UniProt Q13233)
T17 construct: purchased Reaction Biology Corporation
Description: as §1, §2

MEKK6 = target: T18, MEKK6 (Homo sapiens, UniProt O95382)
T18 construct: purchased Reaction Biology Corporation
Description: as §1, §2

MYO3b = target: T19, MYO3b (Homo sapiens, UniProt Q8WXR4)
T19 construct: purchased Reaction Biology Corporation
Description: as §1, §2

NEK5 = target: T20, NEK5 (Homo sapiens, UniProt Q6P3R8)
T20 construct: purchased Reaction Biology Corporation
Description: as §1, §2

PKCb1 = target: T21, PKCb1 (Homo sapiens, UniProt P05771)
T21 construct: purchased Reaction Biology Corporation
Description: as §1, §2

RIPK4 = target: T22, RIPK4 (Homo sapiens, UniProt P57078)
T22 construct: purchased Reaction Biology Corporation
Description: as §1, §2

ROCK1 = target: T23, ROCK1 (Homo sapiens, UniProt Q13464)
T23 construct: purchased Reaction Biology Corporation
Description: as §1, §2

SGK2 = target: T24, SGK2 (Homo sapiens, UniProt Q9HBY8)
T24 construct: purchased Reaction Biology Corporation
T24 sequence (Q9HBY8 whole entry): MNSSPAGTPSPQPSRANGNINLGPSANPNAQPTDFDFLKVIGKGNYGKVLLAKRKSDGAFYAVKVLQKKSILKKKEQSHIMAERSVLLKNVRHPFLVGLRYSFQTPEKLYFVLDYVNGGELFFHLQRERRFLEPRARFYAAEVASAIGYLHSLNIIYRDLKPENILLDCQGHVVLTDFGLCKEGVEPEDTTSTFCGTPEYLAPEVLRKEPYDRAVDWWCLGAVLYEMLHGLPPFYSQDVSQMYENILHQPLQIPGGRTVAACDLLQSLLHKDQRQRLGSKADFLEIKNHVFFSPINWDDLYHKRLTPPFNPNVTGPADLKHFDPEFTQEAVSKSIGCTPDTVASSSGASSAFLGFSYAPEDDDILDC
Description: as §1, §2

SRPK1 = target: T25, SRPK1 (Homo sapiens, UniProt Q96SB4)
T25 construct: purchased Reaction Biology Corporation
T25 sequence (Q96SB4 whole entry): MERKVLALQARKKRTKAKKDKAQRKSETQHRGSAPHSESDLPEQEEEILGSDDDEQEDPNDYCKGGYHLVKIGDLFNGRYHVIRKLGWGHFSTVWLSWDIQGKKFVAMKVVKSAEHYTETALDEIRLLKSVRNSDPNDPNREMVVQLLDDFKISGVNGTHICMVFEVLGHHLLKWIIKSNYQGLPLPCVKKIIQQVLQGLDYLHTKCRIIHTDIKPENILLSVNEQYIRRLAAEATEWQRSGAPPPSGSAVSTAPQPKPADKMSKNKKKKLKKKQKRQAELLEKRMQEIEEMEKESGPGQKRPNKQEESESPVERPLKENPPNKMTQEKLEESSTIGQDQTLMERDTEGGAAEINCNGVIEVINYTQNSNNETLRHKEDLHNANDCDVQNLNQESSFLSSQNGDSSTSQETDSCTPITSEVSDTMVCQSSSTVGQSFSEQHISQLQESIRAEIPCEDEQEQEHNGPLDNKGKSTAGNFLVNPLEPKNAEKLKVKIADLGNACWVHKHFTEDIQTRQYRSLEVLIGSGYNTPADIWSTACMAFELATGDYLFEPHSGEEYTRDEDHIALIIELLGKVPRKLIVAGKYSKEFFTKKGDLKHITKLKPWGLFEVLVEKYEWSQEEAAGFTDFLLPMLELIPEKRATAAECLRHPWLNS
Description: as §1, §2

STK25/YSK1 = target: T26, STK25/YSK1 (Homo sapiens, UniProt O00506)
T26 construct: purchased Reaction Biology Corporation
T26 sequence (O00506 whole entry): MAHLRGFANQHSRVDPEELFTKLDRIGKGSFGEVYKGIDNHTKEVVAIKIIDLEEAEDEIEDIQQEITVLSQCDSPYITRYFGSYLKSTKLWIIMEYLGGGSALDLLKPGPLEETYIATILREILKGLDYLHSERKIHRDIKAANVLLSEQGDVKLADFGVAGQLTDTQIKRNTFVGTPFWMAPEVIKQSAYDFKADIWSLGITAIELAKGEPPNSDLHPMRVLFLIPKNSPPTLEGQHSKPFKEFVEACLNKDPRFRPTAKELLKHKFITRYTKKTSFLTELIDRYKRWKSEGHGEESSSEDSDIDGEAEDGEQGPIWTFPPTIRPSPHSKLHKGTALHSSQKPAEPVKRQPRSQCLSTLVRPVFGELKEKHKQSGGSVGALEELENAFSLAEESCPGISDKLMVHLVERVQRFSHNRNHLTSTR
Description: as §1, §2

STK38L/NDR2 = target: T27, STK38L/NDR2 (Homo sapiens, UniProt Q9Y2H1)
T27 construct: purchased Reaction Biology Corporation
Description: as §1, §2

SYK = target: T28, SYK (Homo sapiens, UniProt P43405)
T28 construct: purchased Reaction Biology Corporation
Description: as §1, §2

ULK2 = target: T29, ULK2 (Homo sapiens, UniProt Q8IYT8)
T29 construct: purchased Reaction Biology Corporation
T29 sequence (Q8IYT8 whole entry): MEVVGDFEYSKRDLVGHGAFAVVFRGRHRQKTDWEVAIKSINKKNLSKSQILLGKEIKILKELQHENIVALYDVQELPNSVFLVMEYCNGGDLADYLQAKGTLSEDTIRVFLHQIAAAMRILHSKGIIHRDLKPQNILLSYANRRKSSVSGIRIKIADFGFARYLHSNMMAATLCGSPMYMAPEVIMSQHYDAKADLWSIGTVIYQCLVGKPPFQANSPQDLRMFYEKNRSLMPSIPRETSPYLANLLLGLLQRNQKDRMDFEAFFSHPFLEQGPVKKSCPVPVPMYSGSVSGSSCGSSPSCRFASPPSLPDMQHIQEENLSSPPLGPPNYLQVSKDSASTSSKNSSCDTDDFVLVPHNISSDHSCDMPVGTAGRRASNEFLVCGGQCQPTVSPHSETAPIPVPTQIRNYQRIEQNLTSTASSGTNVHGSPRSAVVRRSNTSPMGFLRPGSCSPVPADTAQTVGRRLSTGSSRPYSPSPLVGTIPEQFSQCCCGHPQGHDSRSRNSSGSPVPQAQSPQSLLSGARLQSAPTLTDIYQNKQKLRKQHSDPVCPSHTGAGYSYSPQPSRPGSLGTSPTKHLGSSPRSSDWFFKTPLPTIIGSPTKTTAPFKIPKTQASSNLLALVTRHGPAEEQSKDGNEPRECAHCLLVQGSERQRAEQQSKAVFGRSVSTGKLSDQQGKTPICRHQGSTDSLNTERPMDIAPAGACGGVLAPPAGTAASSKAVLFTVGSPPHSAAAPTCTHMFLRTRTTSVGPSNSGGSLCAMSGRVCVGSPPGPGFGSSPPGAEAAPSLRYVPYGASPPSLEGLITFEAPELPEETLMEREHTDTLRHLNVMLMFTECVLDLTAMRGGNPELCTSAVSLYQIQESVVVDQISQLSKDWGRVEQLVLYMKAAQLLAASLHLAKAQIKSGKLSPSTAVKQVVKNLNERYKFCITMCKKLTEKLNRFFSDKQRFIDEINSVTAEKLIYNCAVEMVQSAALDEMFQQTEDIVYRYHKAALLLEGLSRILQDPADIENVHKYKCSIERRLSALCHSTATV
Description: as §1, §2

WNK2 = target: T30, WNK2 (Homo sapiens, UniProt Q9Y3S1)
T30 construct: purchased Reaction Biology Corporation
T30 sequence (Q9Y3S1 whole entry): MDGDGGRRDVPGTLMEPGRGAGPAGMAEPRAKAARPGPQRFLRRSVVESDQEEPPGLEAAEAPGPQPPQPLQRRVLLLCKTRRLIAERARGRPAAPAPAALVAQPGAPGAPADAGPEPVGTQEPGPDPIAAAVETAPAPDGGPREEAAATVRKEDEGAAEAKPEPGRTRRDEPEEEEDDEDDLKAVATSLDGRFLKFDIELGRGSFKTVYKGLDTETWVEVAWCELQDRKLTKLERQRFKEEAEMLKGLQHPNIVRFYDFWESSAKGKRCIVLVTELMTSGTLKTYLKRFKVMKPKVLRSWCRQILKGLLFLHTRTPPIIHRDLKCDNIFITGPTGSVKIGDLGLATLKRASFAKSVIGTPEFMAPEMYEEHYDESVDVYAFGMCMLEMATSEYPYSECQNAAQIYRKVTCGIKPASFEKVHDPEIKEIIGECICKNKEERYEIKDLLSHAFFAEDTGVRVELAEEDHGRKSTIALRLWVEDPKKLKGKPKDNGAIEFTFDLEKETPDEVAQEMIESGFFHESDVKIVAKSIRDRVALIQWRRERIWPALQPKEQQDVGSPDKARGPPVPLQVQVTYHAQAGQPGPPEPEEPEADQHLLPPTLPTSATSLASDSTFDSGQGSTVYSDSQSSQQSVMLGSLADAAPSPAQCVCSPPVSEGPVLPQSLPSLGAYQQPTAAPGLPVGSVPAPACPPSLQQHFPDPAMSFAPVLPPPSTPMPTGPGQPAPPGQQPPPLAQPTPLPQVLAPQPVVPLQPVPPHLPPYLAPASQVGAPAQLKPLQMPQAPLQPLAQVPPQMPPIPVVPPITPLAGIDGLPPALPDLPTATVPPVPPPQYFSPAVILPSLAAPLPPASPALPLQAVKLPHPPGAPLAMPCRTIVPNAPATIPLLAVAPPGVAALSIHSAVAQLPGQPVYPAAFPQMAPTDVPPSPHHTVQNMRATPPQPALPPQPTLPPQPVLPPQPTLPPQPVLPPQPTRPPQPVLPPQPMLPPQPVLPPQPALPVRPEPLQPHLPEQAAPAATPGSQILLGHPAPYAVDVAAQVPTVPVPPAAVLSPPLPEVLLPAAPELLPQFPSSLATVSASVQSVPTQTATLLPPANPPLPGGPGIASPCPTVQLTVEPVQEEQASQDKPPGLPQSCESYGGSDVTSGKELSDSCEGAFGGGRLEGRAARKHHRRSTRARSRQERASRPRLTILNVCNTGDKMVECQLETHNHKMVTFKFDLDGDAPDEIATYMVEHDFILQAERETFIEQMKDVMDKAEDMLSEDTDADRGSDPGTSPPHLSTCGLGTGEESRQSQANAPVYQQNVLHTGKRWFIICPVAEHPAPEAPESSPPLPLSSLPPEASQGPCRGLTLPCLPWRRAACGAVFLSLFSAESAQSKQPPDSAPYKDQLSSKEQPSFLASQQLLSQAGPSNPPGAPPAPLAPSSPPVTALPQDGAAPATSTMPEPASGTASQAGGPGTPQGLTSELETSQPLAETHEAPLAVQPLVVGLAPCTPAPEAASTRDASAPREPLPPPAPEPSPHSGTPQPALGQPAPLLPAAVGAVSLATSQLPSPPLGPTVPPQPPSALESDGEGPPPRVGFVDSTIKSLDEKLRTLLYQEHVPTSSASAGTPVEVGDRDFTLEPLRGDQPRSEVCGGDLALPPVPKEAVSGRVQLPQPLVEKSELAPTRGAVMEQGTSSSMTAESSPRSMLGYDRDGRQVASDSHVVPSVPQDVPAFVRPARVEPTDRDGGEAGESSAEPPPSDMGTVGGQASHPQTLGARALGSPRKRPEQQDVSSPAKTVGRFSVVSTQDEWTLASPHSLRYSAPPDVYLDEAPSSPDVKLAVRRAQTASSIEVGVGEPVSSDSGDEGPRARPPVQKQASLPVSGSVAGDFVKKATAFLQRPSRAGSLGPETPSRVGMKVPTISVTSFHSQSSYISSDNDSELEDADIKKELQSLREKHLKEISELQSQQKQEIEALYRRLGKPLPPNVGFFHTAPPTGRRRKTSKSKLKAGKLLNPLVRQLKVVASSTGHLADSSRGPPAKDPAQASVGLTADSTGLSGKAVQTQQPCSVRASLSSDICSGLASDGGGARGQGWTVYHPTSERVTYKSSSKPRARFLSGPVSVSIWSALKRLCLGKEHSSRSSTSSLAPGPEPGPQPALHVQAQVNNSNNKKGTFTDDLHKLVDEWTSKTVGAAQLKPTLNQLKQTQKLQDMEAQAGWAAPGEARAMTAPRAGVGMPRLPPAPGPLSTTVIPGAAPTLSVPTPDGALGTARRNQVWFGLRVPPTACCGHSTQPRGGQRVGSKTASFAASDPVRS
Description: as §1, §2

ZAP70 = target: T31, ZAP70 (Homo sapiens, UniProt P43403)
T31 construct: purchased Reaction Biology Corporation
Description: as §1, §2

ZIPK/DAPK3 = target: T32, ZIPK/DAPK3 (Homo sapiens, UniProt O43293)
T32 construct: purchased Reaction Biology Corporation
Description: as §1, §2

c-MET = target: T33, c-MET (Homo sapiens, UniProt P08581)
T33 construct: purchased Reaction Biology Corporation
Description: as §1, §2

`CC(=O)Nc1nc2ccc(-c3cnc(C)c(NC(=O)OC4CCCCC4)c3)cc2s1` [PK68, cyclohexyl (5-(2-acetamidobenzo[d]thiazol-6-yl)-2-methylpyridin-3-yl)carbamate] was tested, and the Activity% (ABL1; 1 μM) was 74.18%, the activity at 1 µM (ABL1) was 74.3% and the Activity% (Aurora A; 1 μM) was 95.24%. The activity at 1 µM (Aurora A) was 95.4%, the Activity% (CDK1/cyclin B; 1 μM) was 97.32% and the activity at 1 µM (CDK1/cyclin B) was 97.6%. For the same compound, the Activity% (CDK2/Cyclin A1; 1 μM) was 96.71%, the activity at 1 µM (CDK2/Cyclin A1) was 98.5% and the Activity% (CDK9/cyclin T1; 1 μM) was 110.56%. The activity at 1 µM (CDK9/cyclin T1) was 111%, the Activity% (CDK9/cyclin T2; 1 μM) was 88.23% and the activity at 1 µM (CDK9/cyclin T2) was 90.7%. The Activity% (ERK7/MAPK15; 1 μM) was 96.80%, the activity at 1 µM (ERK7/MAPK15) was 99.3% and the Activity% (GRK7; 1 μM) was 95.94%. The activity at 1 µM (GRK7) was 96.5%, the Activity% (GSK3b; 1 μM) was 97.24% and the activity at 1 µM (GSK3b) was 98.1%. For the same compound, the Activity% (Haspin; 1 μM) was 94.31%, the activity at 1 µM (Haspin) was 94.5% and the Activity% (JAK2; 1 μM) was 96.04%. The activity at 1 µM (JAK2) was 98.2%, the Activity% (JNK3; 1 μM) was 99.15% and the activity at 1 µM (JNK3) was 101%. It also gave an Activity% (KHS/MAP4K5; 1 μM) of 75.34%, an activity at 1 µM (KHS/MAP4K5) of 76.5% and an Activity% (LATS1; 1 μM) of 101.83%. The activity at 1 µM (LATS1) was 103%, the Activity% (LYN; 1 μM) was 92.90% and the activity at 1 µM (LYN) was 95.3%. The Activity% (MAPKAPK2; 1 μM) was 100.37%, the activity at 1 µM (MAPKAPK2) was 101% and the Activity% (MEKK1; 1 μM) was 92.88%. It also gave an activity at 1 µM (MEKK1) of 95.3%, an Activity% (MEKK6; 1 μM) of 88.83% and an activity at 1 µM (MEKK6) of 91.3%. The Activity% (MYO3b; 1 μM) was 99.36%, the activity at 1 µM (MYO3b) was 99.9% and the Activity% (NEK5; 1 μM) was 95.10%. It also gave an activity at 1 µM (NEK5) of 95.5%, an Activity% (PKCb1; 1 μM) of 84.55% and an activity at 1 µM (PKCb1) of 84.8%. The Activity% (RIPK4; 1 μM) was 92.60%, the activity at 1 µM (RIPK4) was 94.5% and the Activity% (ROCK1; 1 μM) was 99.31%. The activity at 1 µM (ROCK1) was 101%, the Activity% (SGK2; 1 μM) was 99.97% and the activity at 1 µM (SGK2) was 101%. The Activity% (SRPK1; 1 μM) was 99.67%, the activity at 1 µM (SRPK1) was 100% and the Activity% (STK25/YSK1; 1 μM) was 104.63%. It also gave an activity at 1 µM (STK25/YSK1) of 110%, an Activity% (STK38L/NDR2; 1 μM) of 100.42% and an activity at 1 µM (STK38L/NDR2) of 101%. For the same compound, the Activity% (SYK; 1 μM) was 98.85%, the activity at 1 µM (SYK) was 99.5% and the Activity% (ULK2; 1 μM) was 101.80%. It also gave an activity at 1 µM (ULK2) of 102%, an Activity% (WNK2; 1 μM) of 94.21% and an activity at 1 µM (WNK2) of 94.6%. The Activity% (ZAP70; 1 μM) was 105.87%, the activity at 1 µM (ZAP70) was 107% and the Activity% (ZIPK/DAPK3; 1 μM) was 98.55%. The activity at 1 µM (ZIPK/DAPK3) was 100%, the Activity% (c-MET; 1 μM) was 101.99% and the activity at 1 µM (c-MET) was 102%.
